In US20240423961A1, “1H-1,2,3-TRIAZOLE-4-CARBOXYLIC ACIDS FOR TREATMENT OF HYPEROXALURIA AND KIDNEY STONES” (CANTERO THERAPEUTICS, INC., priority 2021, published 2024):
Like-named read-outs stand apart in the source and are kept apart here.

Experiment: Phase 1 SAD/MAD study: plasma pharmacokinetics of Compound 1a (LC-MS-MS, noncompartmental analysis)
Format: in vivo, human
Details: for Cmax / Tmax / half-life / AUC(0-t) / Cmax at 7 days / Tmax at 7 days / AUC(0-inf): human, plasma; for Cmax at 7 days: read-out: Day 7 Cmax; for Tmax at 7 days: read-out: Day 7 Tmax
Experimental: Pharmacokinetics: Human K2-ethylenediaminetetraacetic acid (K2-EDTA) plasma samples were analyzed for Compound 1a by a validated method over a range of 1.0 to 1000 ng/mL based on the analysis of 100 μL of sample. Human plasma containing Compound 1a and the internal standard, Compound 1a-D4, was extracted using liquid-liquid extraction and analyzed by a Sciex API 4000 LC-MS-MS equipped with an HPLC column. The peak area of the m/z 370.2→298.0 Compound 1a product ion was measured against the peak area of the m/z 374.3→302.4 Compound 1a-D4 internal standard product ion. Quantitation was performed using a weighted 1/x^2 linear least squares regression analysis generated from calibration standards prepared on the day of extraction.
Pharmacokinetic analysis: Pharmacokinetic calculations based on Compound 1a plasma concentrations were performed using noncompartmental analysis in Phoenix WinNonlin (Certara, Princeton, New Jersey). […] Accumulation ratio based on Cmax was calculated as (Cmax,day 7)/(Cmax, day 1).
Subject disposition: Six cohorts of 6 to 8 subjects each (N=up to 48) were administered single doses of 40, 120, 360, 1,000, 2,000, and 3,000 mg of Compound 1a in Part A under fasting conditions. Following a 2-week washout, subjects in the 1,000 mg cohort were administered a second 1,000 mg single dose following a high-fat breakfast. Six cohorts of 8 healthy subjects each were administered multiple doses of 75 mg […] (qd), 125 mg every 12 hours (q12 h), 500 mg q12 h, 500 mg qd, 750 mg qd, and 1,000 mg qd for 7 days in the MAD Part B (FIG. 1).

[1] = oral, 75 mg, MAD 75 mg qd for 7 days, average
[2] = oral, 125 mg, MAD 125 mg q12h for 7 days, average
[3] = oral, 500 mg, MAD 500 mg q12h for 7 days, average
[4] = oral, 500 mg, MAD 500 mg qd for 7 days, average
[5] = oral, 750 mg, MAD 750 mg qd for 7 days, average
[6] = oral, 1000 mg, MAD 1000 mg qd for 7 days, average
[7] = po, 40 mg, SAD 40 mg oral, fasted, average
[8] = po, 120 mg, SAD 120 mg oral, fasted, average
[9] = po, 360 mg, SAD 360 mg oral, fasted, average
[10] = po, 1000 mg, SAD 1,000 mg oral, fasted, average
[11] = po, 1000 mg, SAD 1,000 mg oral, fed, average
[12] = po, 2000 mg, SAD 2,000 mg oral, fasted, average
[13] = po, 3000 mg, SAD 3,000 mg oral, fasted, average

O.O=C([O-])c1nn[nH]c1Oc1ccc(-c2ccc(C3CC(F)(F)C3)cc2)cc1.[Na+] [Compound 1a, sodium 5-((4′-(3,3-difluorocyclobutyl)-[1,1′-biphenyl]-4-yl)oxy)-1H-1,2,3-triazole-4-carboxylate monohydrate]
Cmax (oral, 40 mg, single dose 40 mg, healthy volunteers, geometric mean): 2040 ng/mL | Tmax (oral, 40 mg, single dose 40 mg, healthy volunteers, geometric mean (geometric CV %), read-out: Tmax): 1.9 h | half-life (oral, 40 mg, single dose 40 mg, healthy volunteers, geometric mean (geometric CV %), read-out: t1/2 (converted)): 25 h | AUC(0-t) (oral, 40 mg, single dose 40 mg, healthy volunteers, geometric mean, read-out: AUClast): 13.9 µg·h/mL | AUC(0-t) (oral, 75 mg, MAD 75 mg qd for 7 days, average, read-out: Day 7 AUC0-24): 23.9 µg·h/mL | Cmax at 7 days [1]: 3420 ng/mL | Tmax at 7 days [1]: 2.45 h | Cmax (oral, 120 mg, single dose 120 mg, healthy volunteers, geometric mean): 5020 ng/mL | Tmax (oral, 120 mg, single dose 120 mg, healthy volunteers, geometric mean (geometric CV %), read-out: Tmax): 2.3 h | half-life (oral, 120 mg, single dose 120 mg, healthy volunteers, geometric mean (geometric CV %), read-out: t1/2 (converted)): 22 h | AUC(0-t) (oral, 120 mg, single dose 120 mg, healthy volunteers, geometric mean, read-out: AUClast): 41 µg·h/mL | AUC(0-t) (oral, 125 mg, MAD 125 mg q12h for 7 days, average, read-out: Day 7 AUC0-12): 45.6 µg·h/mL | Cmax at 7 days [2]: 6450 ng/mL | Tmax at 7 days [2]: 2.04 h | Cmax (oral, 360 mg, single dose 360 mg, healthy volunteers, geometric mean): 10500 ng/mL | Tmax (oral, 360 mg, single dose 360 mg, healthy volunteers, geometric mean (geometric CV %), read-out: Tmax): 2.3 h | half-life (oral, 360 mg, single dose 360 mg, healthy volunteers, geometric mean (geometric CV %), read-out: t1/2 (converted)): 26 h | AUC(0-t) (oral, 360 mg, single dose 360 mg, healthy volunteers, geometric mean, read-out: AUClast): 83.2 µg·h/mL | AUC(0-t) (oral, 500 mg, MAD 500 mg q12h for 7 days, average, read-out: Day 7 AUC0-12): 342 µg·h/mL | Cmax at 7 days [3]: 43800 ng/mL | Tmax at 7 days [3]: 1.44 h | AUC(0-t) (oral, 500 mg, MAD 500 mg qd for 7 days, average, read-out: Day 7 AUC0-24): 133 µg·h/mL | Cmax at 7 days [4]: 17000 ng/mL | Tmax at 7 days [4]: 2.35 h | AUC(0-t) (oral, 750 mg, MAD 750 mg qd for 7 days, average, read-out: Day 7 AUC0-24): 214 µg·h/mL | Cmax at 7 days [5]: 24300 ng/mL | Tmax at 7 days [5]: 2.62 h | AUC(0-t) (oral, 1000 mg, MAD 1000 mg qd for 7 days, average, read-out: Day 7 AUC0-24): 303 µg·h/mL | Cmax at 7 days [6]: 29900 ng/mL | Tmax at 7 days [6]: 2.18 h | Cmax (oral, 1000 mg, single dose 1000 mg, healthy volunteers, geometric mean): 17200 ng/mL | Tmax (oral, 1000 mg, single dose 1000 mg, healthy volunteers, geometric mean (geometric CV %), read-out: Tmax): 2.5 h | half-life (oral, 1000 mg, single dose 1000 mg, healthy volunteers, geometric mean (geometric CV %), read-out: t1/2 (converted)): 28 h | AUC(0-t) (oral, 1000 mg, single dose 1000 mg, healthy volunteers, geometric mean, read-out: AUClast): 184 µg·h/mL | Tmax (oral, 1000 mg, single dose of 1,000 mg, fasted, read-out: average Tmax): 3 h | half-life (oral, 1000 mg, single dose of 1,000 mg, fasted, read-out: t1/2 (converted)): ~26.8 h | Tmax (oral, 1000 mg, single dose of 1,000 mg, fed, read-out: average Tmax): 5.9 h | half-life (oral, 1000 mg, single dose of 1,000 mg, fed, read-out: t1/2 (converted)): ~25.2 h | Cmax (oral, 2000 mg, single dose 2000 mg, healthy volunteers, geometric mean): 25600 ng/mL | Tmax (oral, 2000 mg, single dose 2000 mg, healthy volunteers, geometric mean (geometric CV %), read-out: Tmax): 2.9 h | half-life (oral, 2000 mg, single dose 2000 mg, healthy volunteers, geometric mean (geometric CV %), read-out: t1/2 (converted)): 23 h | AUC(0-t) (oral, 2000 mg, single dose 2000 mg, healthy volunteers, geometric mean, read-out: AUClast): 312 µg·h/mL | Cmax (oral, 3000 mg, single dose 3000 mg, healthy volunteers, geometric mean): 22500 ng/mL | Tmax (oral, 3000 mg, single dose 3000 mg, healthy volunteers, geometric mean (geometric CV %), read-out: Tmax): 2.9 h | half-life (oral, 3000 mg, single dose 3000 mg, healthy volunteers, geometric mean (geometric CV %), read-out: t1/2 (converted)): 34 h | AUC(0-t) (oral, 3000 mg, single dose 3000 mg, healthy volunteers, geometric mean, read-out: AUClast): 225 µg·h/mL | Tmax (oral, single-dose administration of 40 mg to 3,000 mg, read-out: average plasma Tmax values across dose levels): 1.9 to 2.9 h | half-life (oral, single-dose administration of 40 mg to 3,000 mg, read-out: average t1/2 across dose levels): 21.9 to 33.7 h | AUC(0-inf) [7]: 14 µg·h/mL | Cmax [7]: 2040 ng/mL | AUC(0-t) (po, 40 mg, SAD 40 mg oral, fasted, average, read-out: AUC0-24): 12.1 µg·h/mL | Tmax (po, 40 mg, SAD 40 mg oral, fasted, average, read-out: Tmax): 1.89 h | half-life (po, 40 mg, SAD 40 mg oral, fasted, average, read-out: t1/2 (converted)): 24.6 h | AUC(0-inf) [8]: 41.4 µg·h/mL | Cmax [8]: 5020 ng/mL | half-life (po, 120 mg, SAD 120 mg oral, fasted, average, plasma (N = 5), read-out: t1/2 (converted)): 21.9 h | AUC(0-t) (po, 120 mg, SAD 120 mg oral, fasted, average, read-out: AUC0-24): 36.7 µg·h/mL | Tmax (po, 120 mg, SAD 120 mg oral, fasted, average, read-out: Tmax): 2.29 h | AUC(0-inf) [9]: 83.3 µg·h/mL | Cmax [9]: 10500 ng/mL | AUC(0-t) (po, 360 mg, SAD 360 mg oral, fasted, average, read-out: AUC0-24): 74.1 µg·h/mL | Tmax (po, 360 mg, SAD 360 mg oral, fasted, average, read-out: Tmax): 2.28 h | half-life (po, 360 mg, SAD 360 mg oral, fasted, average, read-out: t1/2 (converted)): 25.9 h | AUC(0-inf) [10]: 214 µg·h/mL | Cmax [10]: 19500 ng/mL | AUC(0-t) (po, 1000 mg, SAD 1,000 mg oral, fasted, average, read-out: AUC0-24): 174 µg·h/mL | Tmax (po, 1000 mg, SAD 1,000 mg oral, fasted, average, read-out: Tmax): 3 h | half-life (po, 1000 mg, SAD 1,000 mg oral, fasted, average, read-out: t1/2 (converted)): 26.8 h | AUC(0-inf) [11]: 237 µg·h/mL | Cmax [11]: 14700 ng/mL | AUC(0-t) (po, 1000 mg, SAD 1,000 mg oral, fed, average, read-out: AUC0-24): 180 µg·h/mL | Tmax (po, 1000 mg, SAD 1,000 mg oral, fed, average, read-out: Tmax): 5.86 h | half-life (po, 1000 mg, SAD 1,000 mg oral, fed, average, read-out: t1/2 (converted)): 25.2 h | AUC(0-inf) [12]: 312 µg·h/mL | Cmax [12]: 25600 ng/mL | AUC(0-t) (po, 2000 mg, SAD 2,000 mg oral, fasted, average, read-out: AUC0-24): 253 µg·h/mL | Tmax (po, 2000 mg, SAD 2,000 mg oral, fasted, average, read-out: Tmax): 2.94 h | half-life (po, 2000 mg, SAD 2,000 mg oral, fasted, average, read-out: t1/2 (converted)): 23.4 h | AUC(0-inf) [13]: 226 µg·h/mL | Cmax [13]: 22500 ng/mL | AUC(0-t) (po, 3000 mg, SAD 3,000 mg oral, fasted, average, read-out: AUC0-24): 184 µg·h/mL | Tmax (po, 3000 mg, SAD 3,000 mg oral, fasted, average, read-out: Tmax): 2.94 h | half-life (po, 3000 mg, SAD 3,000 mg oral, fasted, average, read-out: t1/2 (converted)): 33.7 h | Overall exposure, fed versus fasted (food effect) (single dose of 1,000 mg, same cohort, 2-week washout): slightly lower under fed than under fasted conditions
